Molecular target: T1, met (HGF receptor) in human gastric cancer cells MKN45 (Homo sapiens, UniProt P08581)
T1 construct: endogenous in cells; host or cells: MKN45 human gastric cancer cells
Assay: Inhibitory activity against met-autophosphorylation using ELISA method (2), MKN45 cells, HGF-independent
Assay type: cell-based
In short: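 Met autophosphorylation was read by sandwich ELISA: phosphotyrosine capture (PY20), anti-HGF receptor detection, peroxidase read-out at 450 nm. Lysates came from MKN45 gastric cancer cells kept in 0.1% FCS RPMI and treated 1 h at 37 °C with test compound, with no added HGF.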

T1 sequence (P08581 25-1390): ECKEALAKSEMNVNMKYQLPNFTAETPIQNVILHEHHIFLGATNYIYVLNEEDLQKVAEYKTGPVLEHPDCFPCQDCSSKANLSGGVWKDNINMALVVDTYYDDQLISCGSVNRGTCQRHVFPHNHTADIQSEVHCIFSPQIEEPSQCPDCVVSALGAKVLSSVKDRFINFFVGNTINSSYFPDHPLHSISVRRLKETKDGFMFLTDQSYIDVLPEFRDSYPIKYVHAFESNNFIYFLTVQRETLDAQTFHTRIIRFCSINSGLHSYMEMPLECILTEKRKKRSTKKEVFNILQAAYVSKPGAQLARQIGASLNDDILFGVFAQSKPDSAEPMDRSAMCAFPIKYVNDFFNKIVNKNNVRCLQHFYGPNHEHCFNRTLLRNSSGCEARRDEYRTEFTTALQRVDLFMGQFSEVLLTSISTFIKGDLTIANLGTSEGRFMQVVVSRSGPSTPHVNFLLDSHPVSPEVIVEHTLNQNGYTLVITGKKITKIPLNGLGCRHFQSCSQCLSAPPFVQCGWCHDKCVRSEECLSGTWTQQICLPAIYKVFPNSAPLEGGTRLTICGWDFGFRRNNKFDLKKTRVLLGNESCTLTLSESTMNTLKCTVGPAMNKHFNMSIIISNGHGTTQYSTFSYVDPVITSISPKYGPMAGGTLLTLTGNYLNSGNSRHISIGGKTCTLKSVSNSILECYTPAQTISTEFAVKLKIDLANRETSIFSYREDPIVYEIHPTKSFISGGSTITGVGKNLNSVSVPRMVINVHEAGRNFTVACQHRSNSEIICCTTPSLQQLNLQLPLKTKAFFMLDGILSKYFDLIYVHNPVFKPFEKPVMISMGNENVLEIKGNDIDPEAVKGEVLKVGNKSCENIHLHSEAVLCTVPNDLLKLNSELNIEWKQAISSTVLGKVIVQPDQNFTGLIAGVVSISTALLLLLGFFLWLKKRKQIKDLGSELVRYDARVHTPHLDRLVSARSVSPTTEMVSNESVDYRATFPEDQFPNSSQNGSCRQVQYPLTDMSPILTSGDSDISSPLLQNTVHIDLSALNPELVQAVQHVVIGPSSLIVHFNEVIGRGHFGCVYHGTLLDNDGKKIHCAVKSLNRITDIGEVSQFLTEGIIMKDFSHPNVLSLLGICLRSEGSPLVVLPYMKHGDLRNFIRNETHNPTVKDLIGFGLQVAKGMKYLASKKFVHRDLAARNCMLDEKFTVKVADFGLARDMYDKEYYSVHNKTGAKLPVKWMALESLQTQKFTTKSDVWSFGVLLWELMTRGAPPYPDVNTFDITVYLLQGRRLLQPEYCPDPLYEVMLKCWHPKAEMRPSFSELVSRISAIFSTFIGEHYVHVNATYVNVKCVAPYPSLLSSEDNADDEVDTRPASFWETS

| IC50 | SMILES |
| --- | --- |
| 33.6 nM | CCN(CC)CCOc1cc2nccc(Oc3ccc(NC(=S)NC(=O)Cc4ccccc4)cc3F)c2cc1OC [Example 272, 1-{4-[7-(2-Diethylamine-ethoxy)-6-methoxy-quinolin-4-yloxy]-3-fluoro-phenyl}-3-phenylacetyl-thiourea] |
| 282 nM | COc1cc2nccc(Oc3ccc(NC(=S)NC(=O)Cc4cccc(Cl)c4)cc3)c2cc1OC [Example 171, 1-[2-(3-chlorophenyl)acetyl]-3-[4-(6,7-dimethoxyquinolin-4-yloxy)phenyl]thiourea] |
| 241 nM | COc1cc2nccc(Oc3ccc(NC(=S)NC(=O)Cc4ccc(F)c(F)c4)cc3F)c2cc1OC [Example 199, 1-[2-(3,4-difluorophenyl)acetyl]-3-[4-(6,7-dimethoxyquinolin-4-yloxy)-3-fluorophenyl]thiourea] |
| 19.5 nM | CCN(CC)CCCOc1cc2nccc(Oc3ccc(NC(=O)NC(=O)Cc4ccccc4)cc3F)c2cc1OC [Example 291, 1-{4-[7-(3-Diethylamino-propoxy)-6-methoxy-quinolin-4-yloxy]-3-fluoro-phenyl}-3-phenylacetyl-urea] |
| 221 nM | COc1cc2nccc(Oc3ccc(NC(=S)NC(=O)Cc4cccc(C)c4)cc3F)c2cc1OC [Example 176, 1-[4-(6,7-dimethoxyquinolin-4-yloxy)-3-fluorophenyl]-3-(2-m-tolylacetyl)thiourea] |
| 18.5 nM | COc1cc2c(Oc3ccc(NC(=O)NC(=O)Cc4ccccc4)c(F)c3)ccnc2cc1OCCCN1CCC(CO)CC1 [Example 311, 1-(2-Fluoro-4-{7-[3-(4-hydroxymethyl-piperidin-1-yl)-propoxy]-6-methoxy-quinolin-4-yloxy}-phenyl)-3-phenyl-acetyl-urea] |
| 234 nM | COc1cccc(CC(=O)NC(=S)Nc2ccc(Oc3ccnc4cc(OC)c(OC)cc34)c(Cl)c2)c1 [Example 186, 1-[3-chloro-4-(6,7-dimethoxyquinolin-4-yloxy)phenyl]-3-[2-(3-methoxyphenyl)acetyl]thiourea] |
| 526 nM | COc1cc2nccc(Oc3ccc(NC(=O)NC(=O)Nc4ccc(Cl)cc4)cc3)c2cc1OC [Example 249, N-(4-chlorophenyl)-({[4-(6,7-dimethoxy-quinolin-4-yloxy)anilino]carbonyl}amino)methanamide] |
| 22 nM | COc1cc2c(Oc3ccc(NC(=O)NC(=O)Cc4ccccc4)cc3F)ccnc2cc1OCC(O)CN1CCOCC1 (stereo not drawn) [Example 337, 1-{3-Fluoro-4-[7-(2-hydroxy-3-morpholin-1-yl-propoxy)-6-methoxy-quinolin-4-yloxy]-phenyl}-3-(2-phenyl-acetyl)-urea] |
| 259 nM | COc1cc2nccc(Oc3ccc(NC(=O)NC(=O)Nc4c(F)cccc4F)cc3)c2cc1OC [Example 265, N-(2,6-difluorophenyl)-({[4-(6,7-dimethoxy-quinolin-4-yloxy)anilino]carbonyl}amino)methanamide] |
| 2560 nM | COCCC(=O)NC(=S)Nc1ccc(Oc2ccnc3cc(OC)c(OC)cc23)c(Cl)c1 [Example 180, 1-[3-chloro-4-(6,7-dimethoxyquinolin-4-yloxy)phenyl]-3-(3-methoxy-propionyl)thiourea] |
| 20.6 nM | COc1cc2c(Oc3ccc(NC(=S)NC(=O)Cc4ccc(F)cc4)cc3F)ccnc2cc1OCC(O)CN1CCCC1 (stereo not drawn) [Example 330, 1-{3-Fluoro-4-[7-(2-hydroxy-3-pyrrolidin-1-yl-propoxy)-6-methoxy-quinolin-4-yloxy]-phenyl}-3-[2-(4-fluoro-phenyl)-acetyl]-thiourea] |
| 2910 nM | COc1cc2nccc(Oc3ccc(NC(=O)NC(=O)Nc4ccccc4Cc4ccccc4)cc3)c2cc1OC [Example 246, N-(2-benzylphenyl)-({[4-(6,7-dimethoxy-quinolin-4-yloxy)anilino]carbonyl}amino)methanamide] |
| 305 nM | COc1cc2nccc(Oc3ccc(NC(=S)NC(=O)Cc4ccccc4C(F)(F)F)c(F)c3)c2cc1OC [Example 200, 1-[4-(6,7-dimethoxyquinolin-4-yloxy)-2-fluorophenyl]-3-[2-(2-trifluoromethylphenyl)acetyl]-thiourea] |
| 423 nM | COc1cc2nccc(Oc3ccc(NC(=S)NC(=O)Cc4cccc(Cl)c4)c(F)c3)c2cc1OC [Example 172, 1-[2-(3-chlorophenyl)acetyl]-3-[4-(6,7-dimethoxyquinolin-4-yloxy)-2-fluorophenyl]thiourea] |
| 188 nM | COc1cc2c(Oc3ccc(NC(=S)NC(=O)Cc4ccccc4Cl)cc3F)ccnc2cc1OCC(O)CN1CCCCC1 (stereo not drawn) [Example 316, 1-[2-(2-Chloro-phenyl)-acetyl]-3-{3-fluoro-4-[7-(2-hydroxy-3-piperidin-1-yl-propoxy)-6-methoxy-quinolin-4-yloxy]-phenyl}-thiourea] |

Second part, the compound before the results:

| SMILES | IC50 |
| --- | --- |
| COc1cc2nccc(Oc3ccc(NC(=S)NC(=O)c4ccc(C)s4)cc3)c2cc1OC [Example 160, 1-[4-(6,7-dimethoxyquinolin-4-yloxy)phenyl]-3-(5-methylthiophen-2-carbonyl)thiourea] | 1630 nM |
| COc1cc2nccc(Oc3ccc(NC(=O)NC(=O)Cc4cccc(F)c4F)c(F)c3)c2cc1OC [Example 138, 1-[2-(2,3-difluorophenyl)acetyl]-3-[4-(6,7-dimethoxyquinolin-4-yloxy)-2-fluorophenyl]urea] | 284 nM |
| COc1cc2nccc(Oc3ccc(NC(=O)NC(=O)Cc4cccc(F)c4)cc3F)c2cc1OC [Example 37, 1-[4-(6,7-dimethoxyquinolin-4-yloxy)-3-fluoro-phenyl]-3-[2-(3-fluorophenyl)acetyl]urea] | 58.4 nM |
| COc1cc2nccc(Oc3ccc(NC(=O)NC(=O)Cc4ccc(F)cc4)cc3F)c2cc1OC [Example 23, 1-[4-(6,7-dimethoxyquinolin-4-yloxy)-3-fluoro-phenyl]-3-[2-(4-fluorophenyl)acetyl]urea] | 26.3 nM |
| COc1cc2nccc(Oc3ccc(NC(=O)NC(=O)Cc4ccc(F)cc4F)cc3F)c2cc1OC [Example 34, 1-[2-(2,4-difluorophenyl)acetyl]-3-[4-(6,7-dimethoxyquinolin-4-yloxy)-3-fluorophenyl]urea] | 46.3 nM |
| COc1cc2nccc(Oc3ccc(NC(=S)NC(=O)CCSC)cc3F)c2cc1OC [Example 147, 1-[4-(6,7-dimethoxyquinolin-4-yloxy)-3-fluorophenyl]-3-(3-methylsulfanylpropionyl)thiourea] | 1170 nM |
| COc1cc2nccc(Oc3ccc(NC(=S)NC(=O)Cc4ccccc4)cc3C)c2cc1OC [Example 67, 1-[4-(6,7-dimethoxyquinolin-4-yloxy)-3-methyl-phenyl]-3-phenylacetylthiourea] | 19.7 nM |
| COc1cc2nccc(Oc3ccc(NC(=O)NC(=O)Cc4ccccc4)cc3Cl)c2cc1OC [Example 18, 1-[3-chloro-4-(6,7-dimethoxyquinolin-4-yloxy)-phenyl]-3-phenylacetylurea] | 150 nM |
| COc1cc2nccc(Oc3ccc(NC(=O)NC(=O)Cc4ccc(F)c(F)c4)cc3)c2cc1OC [Example 39, 1-[2-(3,4-difluorophenyl)acetyl]-3-[4-(6,7-dimethoxyquinolin-4-yloxy)phenyl]urea] | 114 nM |
| COc1cc2nccc(Oc3ccc(NC(=O)CC(=O)NC4CCCCCC4)cc3)c2cc1OC [Example 101, N-cycloheptyl-N′-[4-(6,7-dimethoxyquinolin-4-yloxy)phenyl]malonamide] | 44.4 nM |
| COc1cc2nccc(Oc3ccc(NC(=O)NC(=O)c4ccccc4Cl)c(F)c3)c2cc1OC [Example 107, 1-(2-chloro-benzoyl)-3-[4-(6,7-dimethoxy-quinolin-4-yloxy)-2-fluorophenyl]urea] | 345 nM |
| COc1cc2nccc(Oc3ccc(NC(=O)NC(=O)Cc4c(F)cccc4F)cc3F)c2cc1OC [Example 135, 1-[2-(2,6-difluorophenyl)acetyl]-3-[4-(6,7-dimethoxyquinolin-4-yloxy)-3-fluorophenyl]urea] | 226 nM |
| COc1cc2nccc(Oc3ccc(NC(=S)NC(=O)Cc4ccccc4)cc3Cl)c2cc1OC [Example 63, 1-[3-chloro-4-(6,7-dimethoxyquinolin-4-yloxy)-phenyl]-3-phenylacetylthiourea] | 24.4 nM |
| COc1cc2c(Oc3ccc(NC(=O)NC(=O)Cc4ccc(F)cc4)cc3F)ccnc2cc1OCCCCN1CCOCC1 [Example 41, 1-{3-fluoro-4-[6-methoxy-7-(4-morpholin-4-yl-butoxy)quinolin-4-yloxy]phenyl}-3-[2-(4-fluorophenyl)-acetyl]urea] | 281 nM |
| COc1cc2c(Oc3ccc(NC(=O)NC(=O)Cc4ccccc4)cc3F)ccnc2cc1OCCCCl [Example 14, 1-{4-[7-(3-chloro-propoxy)-6-methoxyquinolin-4-yloxy]-3-fluorophenyl}-3-phenylacetylurea] | 291 nM |
| COc1cc2nccc(Oc3ccc(NC(=O)NC(=O)Cc4cccs4)cc3F)c2cc1OC [Example 31, 1-[4-(6,7-dimethoxyquinolin-4-yloxy)-3-fluoro-phenyl]-3-(2-thiophen-2-ylacetyl)urea] | 34.1 nM |
| COc1cc2nccc(Oc3ccc(NC(=S)NC(=O)Cc4ccccc4Cl)cc3F)c2cc1OC [Example 87, 1-[2-(2-chlorophenyl)acetyl]-3-[4-(6,7-dimethoxyquinolin-4-yloxy)-3-fluorophenyl]thiourea] | 198 nM |
| COc1cc2nccc(Oc3ccc(NC(=S)NC(=O)Cc4cccc(C)c4)cc3)c2cc1OC [Example 77, 1-[4-(6,7-dimethoxyquinolin-4-yloxy)phenyl]-3-(2-m-tolylacetyl)thiourea] | 178 nM |
| COc1cc2c(Oc3ccc(NC(=O)NC(=O)Cc4ccc(F)cc4)c(F)c3)ccnc2cc1OCCCCN1CCOCC1 [Example 44, 1-{2-fluoro-4-[6-methoxy-7-(4-morpholin-4-yl-butoxy)quinolin-4-yloxy]phenyl}-3-[2-(4-fluorophenyl)-acetyl]urea] | 291 nM |
| COc1ccccc1CC(=O)NC(=S)Nc1ccc(Oc2ccnc3cc(OC)c(OC)cc23)cc1 [Example 153, 1-[4-(6,7-dimethoxyquinolin-4-yloxy)phenyl]-3-[2-(2-methoxyphenyl)acetyl]thiourea] | 232 nM |
